One series relates to normal human melanocytes. Put plainly: Depigmenting activity (reduction of melanin production) in normal human melanocytes in vitro. Type of series: cell-based. The note with it: Melanocyte, 72 hours incubation, optical density of melanin, maximum concentration tested 200 μM, read-out: IC50 (concentration at which a 50% decrease in melanin synthesis is achieved). The procedure: The measurement of the depigmenting activity (reduction of melanin production) of compounds of formula (I) was performed by assaying normal human melanocytes in vitro as follows.
First of all, normal human melanocytes are cultured and dispensed into wells. After 24 hours, the culture medium was replaced with a medium containing compounds of formula (I) to be evaluated. The cells were incubated 72 hours before measurement of the final optical density, which measures the amount of melanin produced by the melanocytes. A dose effect is performed using a wide concentration range of the compounds evaluated. Thus, by making the concentrations and the melanin measurements correspond, it is possible to determine an IC50 in μM: concentration at which a 50% decrease in melanin synthesis is achieved.
Various test campaigns were conducted and the results collated in the table below.

For series [1], the system named is coculture of keratinocytes and melanocytes. In words: Coculture experiment: melanogenesis-modulating effect and cytotoxicity. The note with it: for IC50: melanin optical density, read-out: IC50 (concentration for which 50% of the melanin synthesis is inhibited). Type of series: cell-based. The procedure: The melanogenesis-modulating effect of compound 1 was measured according to the method described in patent FR-A-2734825, and also in the article by R. Schmidt, P. Krien and M. Régnier, Anal. Biochem., 235(2), 113-18, 1996. This test is performed on a coculture of keratinocytes and melanocytes.
The following were determined for the test compound: • the cytotoxicity, • the inhibitory activity on melanin synthesis, by estimating the melanin optical density.
The IC50 values (concentration for which 50% of the melanin synthesis is inhibited) were determined.

Series [2] deals with pigmented reconstructed epidermis. Put plainly: Depigmenting activity on pigmented reconstructed epidermis (melanin quantified by image analysis, Fontana Masson). It counts as cell-based, human. Conditions: 300 μM in DMSO, control DMSO, Mann-Whitney test, pValue<0.05. How it is done: Compositions comprising 300 μM of compound 1 in DMSO were applied to samples of pigmented reconstructed epidermis (cf. EP 1 878 790). The control is DMSO.
The melanin was quantified by image analysis on histological slices after staining with Fontana Masson dye. Each sample of coloured epidermis is photographed over its entire length using a camera connected to a microscope. The melanin is thresholded and the number of melanin pixels is measured in each field using automated image analysis software. A non-parametric statistical test is performed in order to determine the significance of the measurements (Mann-Whitney test, see FIG. 1).
The pigmented reconstructed epidermis standard study model was published by: Regnier M, Duval C, Galey J B, Philippe M, Lagrange A, Tuloup R, Schmidt R, Cellular and Molecular Biology, 1999, 45, 7, 969-980: “Keratinocyte-Melanocyte co-cultures and pigmented reconstructed human epidermis: models to study modulation of melanogenesis”.

Each structure is given as a SMILES string.

Turning to `CC1(C)CSSC[C@@H](C(=O)O)NC1=O` [Compound 1, 7,7-dimethyl-6-oxo-1,2,5-dithiazocane-4-(R)-carboxylic acid], the IC50 in the series with normal human melanocytes turned out to be 62.5 µM. Also, in series [1], the cytotoxicity result is “non-cytotoxic” and the IC50 stood at 9.6 µM. Also, the “depigmenting activity (melanin quantified by image analysis)” value in series [2] is listed as “Significant depigmenting activity”.
Take `COC(=O)[C@@H]1CSSCC(C)(C)C(=O)N1` [Compound 2, methyl 7,7-dimethyl-6-oxo-1,2,5-dithiazocane-4(R)-carboxylate]: the IC50 stood at 13.6 µM in the series on normal human melanocytes and 0.74 µM in series [1]. Further, in series [1], the cytotoxicity entry is on record as “non-cytotoxic”.
On to `CC1(C)CSSCC(C(N)=O)NC1=O` (stereo not shown) [Compound 3′, 7,7-dimethyl-6-oxo-1,2,5-dithiazocane-4-carboxamide], for which the IC50 in the series with normal human melanocytes came to 2.35 µM.
Regarding `CN(C)C(=O)C1CSSCC(C)(C)C(=O)N1` (stereo not shown) [Compound 4′, N,N,7,7-tetramethyl-6-oxo-1,2,5-dithiazocane-4-carboxamide], in the series on normal human melanocytes, the IC50 turned out to be 4.23 µM.
Take `CCOC(=O)C1CSSCC(C)(C)C(=O)N1` (stereo not shown) [Compound 5′, ethyl 7,7-dimethyl-6-oxo-1,2,5-dithiazocane-4-carboxylate]: in series [1], the cytotoxicity entry is “non-cytotoxic” and the IC50 worked out at 0.79 µM.
`CC(C)OC(=O)C1CSSCC(C)(C)C(=O)N1` (stereo not shown) [Compound 6′, propan-2-yl 7,7-dimethyl-6-oxo-1,2,5-dithiazocane-4-carboxylate]: the IC50 in the series on normal human melanocytes was determined as 1.9 µM. Further, in series [1], the cytotoxicity entry is recorded as “non-cytotoxic” and the IC50 turned out to be 1.57 µM.
On to `CC1(C)CSSCC(C(=O)NCCO)NC1=O` (stereo not shown) [Compound 7′, N-(2-hydroxyethyl)-7,7-dimethyl-6-oxo-1,2,5-dithiazocane-4-carboxamide], for which the IC50 in the series on normal human melanocytes is < 0.4 µM. In series [1], the cytotoxicity result is recorded as “non-cytotoxic” and the IC50 was 1.04 µM.
The like results for `CCOC(=O)CNC(=O)C1CSSCC(C)(C)C(=O)N1` (stereo not shown) [Compound 8′, ethyl N-[(7,7-dimethyl-6-oxo-1,2,5-dithiazocan-4-yl)carbonyl]glycinate] were, in that order, 0.87 µM, “non-cytotoxic” and 1.23 µM.
As for `CCOC(=O)C(Cc1ccccc1)NC(=O)C1CSSCC(C)(C)C(=O)N1` (stereo not shown) [Compound 9′, ethyl N-[(7,7-dimethyl-6-oxo-1,2,5-dithiazocan-4-yl)carbonyl]phenylalaninate], the IC50 with normal human melanocytes worked out at 20.8 µM.
Turning to `COCCOCCOC(=O)C1CSSCC(C)(C)C(=O)N1` (stereo not shown) [Compound 10′, 2-(2-methoxyethoxy)ethyl 7,7-dimethyl-6-oxo-1,2,5-dithiazocane-4-carboxylate], the IC50 in the series on normal human melanocytes was found to be 5.26 µM. Further, in series [1], the cytotoxicity result was “non-cytotoxic” and the IC50 is 7.62 µM.
As to `COCC(C)OCC(C)OCC(C)OC(=O)C1CSSCC(C)(C)C(=O)N1` (stereo not shown) [Compound 11′, 1-({1-[(1-methoxypropan-2-yl)oxy]propan-2-yl}oxy)propan-2-yl 7,7-dimethyl-6-oxo-1,2,5-dithiazocane-4-carboxylate], the IC50 in the series on normal human melanocytes was 10.7 µM.
Regarding `CC1(C)CSSCC(C(=O)NCC(=O)O)NC1=O` (stereo not shown) [Compound 12′, N-[(7,7-dimethyl-6-oxo-1,2,5-dithiazocan-4-yl)carbonyl]glycine], in the series on normal human melanocytes, the IC50 was determined as 63.8 µM.
For the compound `CCCCCCCNC(=O)C1CSSCC(C)(C)C(=O)N1` (stereo not shown) [Compound 13′, N-heptyl-7,7-dimethyl-6-oxo-1,2,5-dithiazocane-4-carboxamide], the IC50 with normal human melanocytes turned out to be 0.66 µM.
Take `CC1(C)CSSCC(C(=O)OCC(O)CO)NC1=O` (stereo not shown) [Compound 18′, 2,3-dihydroxypropyl 7,7-dimethyl-6-oxo-1,2,5-dithiazocane-4-carboxylate]: the IC50 in the series with normal human melanocytes is 9.8 µM.

The values are drawn from US20210000727A1, “DITHIAZOCANE COMPOUNDS FOR THE COSMETIC USE THEREOF” (L'OREAL, priority 2017, published 2021).
